Assay results reported in article PMC8179002, “Inhibitors of thiol-mediated uptake” (Chemical Science, 2020).
Where two headings read alike, the source gives them in different places.

What was measured:
[1] = tested on: cellular uptake of 1 in HeLa Kyoto cells; test: cells; assay type: cell-based; conditions: HeLa; for minimal effective concentration / IC50: HeLa Kyoto, removal, tinc 0.5 h with 1 (10 µM); for minimal effective concentration: read-out: MIC, inhibition of cellular uptake of 1; for IC50: read-out: IC50, inhibition of cellular uptake of 1; for MIC (concentration that causes ∼15% reduction of reporter uptake), against reporter 1: pre-incubation time not given (Fig. 2: 1 h pre-incubation, 30 min with reporter; some 15 min)
Experimental: (§1) With COCs 1 and 2 as cell-penetrating reporters, a fully automated, fluorescent microscopy image-based high-content high-throughput (HCHT)[19] inhibitor screening assay was developed. HeLa cells in multiwell plates are incubated with a reporter at constant and inhibitors at varying concentrations and incubation times. Hindered reporter uptake then causes decrease of fluorescence inside of cells (Fig. 3a). Automated data analysis[19] was established to extract average fluorescence intensity per cell and, at the same time, cell viability from propidium iodide negative nuclei count (Fig. 3 and S3–S6 ^†). Standard assay conditions consisted of pre-incubation of HeLa cells with inhibitors for different periods of time, followed by the removal of inhibitors and the addition of reporters, thus excluding possible interactions between the two in the extracellular environment. In alternative co-incubation conditions, inhibitors were not removed before the addition of reporters to allow for eventual interactions between the two.
4. High-Content High-Throughput (HCHT) Inhibitor Screening
4.1. General Procedure for HCHT Inhibitor Screening
4.1.1. Pre-Incubation of Inhibitors
HeLa Kyoto cells were seeded at 1.2 ×10^4 cells/well in FluoroBrite DMEM + 10% FBS on μ-Plate 96-well Black ibiTreat sterile and kept at 37 °C with 5% CO2 overnight. Next day, serial dilutions of the inhibitors in PBS (10x final concentration), reporter 1 or 2 (100 μM in PBS) and a solution of Hoechst 33342 (100 μg/mL) and PI (10 μg/mL) in PBS were prepared freshly in a 96-well V-bottom plate. Then, cells were washed with PBS ([…]) and the media was exchanged to FluoroBrite DMEM (4 x 150 μL/well) using a plate washer (Biotek EL406®), keeping always a final volume of 135 μL/well. The inhibitor solutions from the V-bottom plate were added to the cells (15 μL/well, 10x final concentration in PBS) using an electronic multichannel pipettes to reach a final volume of 150 μL/well. Cells were incubated for the time of interest (for details of each inhibitors, see Section 4.3 and 4.4) at 37 °C with 5%
CO2. After this, cells were washed again using the plate washer and reporter solution 1 or 2 from the V-bottom plate was added (15 μL/well) using an electronic multichannel pipettes to reach a final volume of 150 μL/well and a final concentration of 10 μM, except for the control wells, where only PBS was added (15 μL/well). After 30 min of incubation at 37 °C with 5% CO2, the plate was washed again using the plate washer. Then, the solution of Hoechst 33342 and PI from V-bottom plate was added (15 μL/well) using an electronic multichannel pipettes to reach a final volume of 150 μL/well. After 15 min of incubation at 37 °C with 5% CO2, the plate was washed one last time and the cells were kept in clean FluoroBrite DMEM. During imaging, samples were kept at 37 °C with 5% CO2 in the microscope.
4.1.2. Co-Incubation of Inhibitors and Reporters […]
serial dilutions of the inhibitors in PBS (10x final concentration), reporter 1 or 2 (110 μM in […]
freshly in a 96-well V-bottom plate. Then, cells were washed with the plate washer. The inhibitor solutions from the V-bottom plate were added to the cells (15 μL/well, 10x final concentration in PBS) using an electronic multichannel pipettes to reach a final volume of 150 μL/well. Cells were incubated for the time of interest (for details of each inhibitors, see Section 4.3 and 4.4) at 37 °C with 5% CO2. Reporter solution 1 or 2 from V-bottom plate was then added (15 μL/well) using an electronic multichannel pipettes to reach a final volume of 165 μL/well and a final concentration of 10 μM 30 min before the next washing process, except for the control wells, where only PBS was added (15 μL/well). The plate was washed again using the plate washer. The solution of Hoechst 33342 and PI from V-bottom plate was added (15 μL/well) using an electronic multichannel pipettes to reach a final volume of 150 μL/well. After […]

[2] = Relative cell viability in HCHT screening (propidium iodide negative nuclei count); assay type: cell-based; conditions: human; for GI50: HeLa, removal, tinc 0.5 h with 1 (10 µM), read-out: GI50, concentration causing 50% cell growth inhibition
Experimental: as §1
To be able to extract the fluorescent integrated intensity information (sum of the intensities of all the pixels included in the mask) from the green channel for live cell only, the image analysis pipeline contains several steps of cell filtering and selection:
1) Firstly, PI is used to stain any remaining nuclei of dead cell. In the analysis pipeline, all the “dead” nuclei are detected based on their fluorescent intensity in the PI channel (Figure […]
Fig. S4 (A) PI positive nuclei mask (fluorescent intensity threshold of 1000). (B) Overlap image of dead nuclei mask and original all cell body mask. (C) Resulting cell mask after removing any cell marked by a dead nucleus, new mask is called “Live Cell”. Scale bar: 50 μm.
2) Elimination of non-full cells from the border of the image is performed, to avoid inaccurate fluorescent integrated intensity quantification (fluorescent integrated intensity = sum of intensity of all the pixel of the object) (Figure S5).
(1 picture or pasted object on this page, not shown here)
4.3. HCHT Inhibitor Screening with ETP as Reporter […]
(§2) Relative cell viability (RV) for each condition in the presence of inhibitors were calculated using the count value of living cells by dividing the count value of living cells with addition of reporter 1, Hoechst 33342 and PI, for each set of experiments. Duplicates were performed for each condition. The resulting dependence of the relative cell viability (RVrel) to the concentration of inhibitors (cinhibitor) was plotted and fitted with Equation (S2) to retrieve the concentration causing 50% cell growth inhibition (GI50) value and the Hill coefficient (n).
RVrel = 1 / (1 + (GI50 / cinhibitor)n) (S2)
Note: Reporter 1 were not toxic for 1 h at 10 μM.S2 Also in this study, the count value of living cells with addition of reporter 1, Hoechst 33342 and PI is always similar to that of living cells with only addition of Hoechst 33342 and PI.
as §2, with “with” for “in the presence of”, “2,” for “1,”
Note: Reporter 2 were not toxic for 24 h at 10 μM.S3 Also in this study, the count value of living cells with addition of reporter 2, Hoechst 33342 and PI is always similar to that of living cells with only addition of Hoechst 33342 and PI.
4.4.1. Screening with Disulfides as Inhibitors
4.4.1.1. Screening with ETP as Inhibitors
Fig. S35 Automatically analyzed HCHT data showing fluorescence intensity (filled symbols) and relative viability (empty symbols) of HeLa cells after pre-incubation with 3 for 1 h (blue […]

[3] = 0.25 h, tpre 0.25 h with inhibitor
[4] = 0.5 h, tpre 0.5 h with inhibitor
[5] = GI50, concentration causing 50% cell growth inhibition

SMILES	minimal effective concentration [1, 3] [µM]	IC50 [1, 4] [µM]	minimal effective concentration [1, 4] [µM]	minimal effective concentration ([1]; 1 h, tpre 1 h with inhibitor) [µM]	IC50 ([1]; tpre 0.25 h with inhibitor) [µM]	IC50 ([1]; tpre 1 h with inhibitor) [µM]	MIC (concentration that causes ∼15% reduction of reporter uptake), against reporter 1 [1]	GI50 ([2]; tpre 0.25 h with inhibitor) [µM]	GI50 ([2]; tpre 0.5 h with inhibitor) [µM]	GI50 ([2]; tpre 1 h with inhibitor) [µM]	minimal effective concentration ([1]; 2 h, tpre 2 h with inhibitor) [µM]	minimal effective concentration ([1]; 4 h, tpre 4 h with inhibitor) [µM]	IC50 ([1]; tpre 2 h with inhibitor) [µM]	IC50 ([1]; tpre 4 h with inhibitor) [µM]	GI50 ([2]; tpre 2 h with inhibitor) [µM]	GI50 ([2]; tpre 4 h with inhibitor) [µM]	Inhibition of uptake of reporter 1, in words [1]	GI50 at 0.5 h [2, 5] [µM]	GI50 at 1 h [2, 5] [µM]
CS(=O)(=O)c1nc2ccccc2o1 [compound 11]	18	43.3 ± 3.9	15	8	84 ± 8.2	38.9 ± 4.2	≈ 15 μM	> 200	138 ± 42	97 ± 8	–	–	–	–	–	–	–	–	–
CS(=O)(=O)c1nnc(-c2ccccc2)o1 [compound 14]	40	204 ± 63	20	–	137 ± 28	–	–	> 500	410 ± 99	–	–	–	–	–	–	–	–	–	–
O=C(O)C1CSSC1 [compound 28]	–	–	–	> 2000	–	> 2000	–	–	–	> 2000	> 2000	> 2000	> 2000	> 2000	> 2000	> 2000	–	–	–
CS(=O)(=O)c1nc2ccccc2s1 [compound 21]	300	> 500	100	300	> 500	> 500	≈ 300 μM	> 500	> 500	> 500	–	–	–	–	–	–	–	–	–
O=C(O)CNC(=O)c1ccc2c(c1)S[S+]([O-])S2 (stereo not shown) [compound 24]	–	> 20	> 20	> 20	–	> 20	–	–	> 20	> 20	> 20	–	> 20	–	> 20	–	–	–	–
O=C(O)c1cc(SSc2ccc([N+](=O)[O-])c(C(=O)O)c2)ccc1[N+](=O)[O-] [compound 20, 5,5’-Dithiobis(2-nitrobenzoic acid), reference compound]	–	–	200	500	–	–	–	–	–	–	–	–	–	–	–	–	minor inhibition up to around 2 mM, which disappeared again at higher concentrations	> 10000	> 10000
